The numbers were not newly measured in US7528137B2, “Compounds, compositions, and methods” (Cytokinetics, Inc., priority 2002, dated 2009), which cites them from elsewhere.

The subject of the data set is A549 cells. The following applies: data provided by National Cancer Institute, Developmental Therapeutic Program.
Consider `O=c1[nH]cc(F)c(=O)[nH]1` [5-fluorouracil], for which the GI50 is 1000 nM.
Take `COc1cccc2c1C(=O)c1c(O)c3c(c(O)c1C2=O)C[C@@](O)(C(=O)CO)C[C@@H]3O[C@H]1C[C@H](N)[C@H](O)[C@H](C)O1` [doxorubicin]: the GI50 was 63 nM.
Take `NC(=O)NO` [hydroxyurea]: the GI50 was 500000 nM.
As for `CC(=O)O[C@H]1C(=O)[C@@]2(C)[C@H]([C@H](OC(=O)c3ccccc3)[C@]3(O)C[C@H](OC(=O)[C@H](O)[C@@H](NC(=O)c4ccccc4)c4ccccc4)C(C)=C1C3(C)C)[C@]1(OC(C)=O)CO[C@@H]1C[C@@H]2O` [paclitaxel], the GI50 is 4 nM.

As usually defined, the GI50 is the concentration that inhibits growth by half.
